Results published in ChEMBL document CHEMBL5260810, “Inhibition of bromodomain-containing protein 9 for the prevention of epigenetically-defined drug resistance” (Bioorg Med Chem Lett, 2017).

Key:
[1] = molecular target: TGF-beta receptor type-1 (Homo sapiens) (UniProt P36897); assay: Inhibition of TGFBR1 (unknown origin) at 1 uM relative to control
NOMO-1 = assay: Cytotoxicity against human NOMO-1 cells measured after 8 days; type: functional, cell-based; settings: NOMO-1, 192 h
[2] = Cytotoxicity against mouse LA-4 cells measured after 8 days; type: functional, cell-based; settings: LA-4, 192 h
[3] = Cytotoxicity against human Karpas-620 cells measured after 8 days; type: functional, cell-based; settings: Karpas-620, 192 h
[4] = Cytotoxicity against human NCI-H2369 cells measured after 8 days; type: functional, cell-based; settings: NCI-H2369, 192 h
SET-2 = assay: Cytotoxicity against human SET2 cells measured after 8 days; type: functional, cell-based; settings: SET-2, 192 h
TMD8 = assay: Cytotoxicity against human TMD8 cells measured after 8 days; type: functional, cell-based; settings: TMD8, 192 h
[5] = Cytotoxicity against human NCE-G 130 cells measured after 8 days; type: functional, cell-based; settings: NCE-G 130, 192 h
[6] = Cytotoxicity against human NCE-G 142 cells measured after 8 days; type: functional, cell-based; settings: NCE-G 142, 192 h
[7] = Cytotoxicity against human KP-N-SI9s cells measured after 8 days; type: functional, cell-based; settings: 192 h
SU-DHL-8 = assay: Cytotoxicity against human SU-DHL-8 cells measured after 8 days; type: functional, cell-based; settings: SU-DHL-8, 192 h
[8] = Cytotoxicity against human SM1 cells measured after 8 days; type: functional, cell-based; settings: SM1, 192 h
[9] = Cytotoxicity against human COV362.4 cells measured after 8 days; type: functional, cell-based; settings: COV362.4, 192 h
[10] = Cytotoxicity against human COV413A cells measured after 8 days; type: functional, cell-based; settings: 192 h
CAL-148 = assay: Cytotoxicity against human CAL-148 cells measured after 8 days; type: functional, cell-based; settings: CAL-148, 192 h
[11] = Cytotoxicity against human Hs 38.T cells measured after 8 days; type: functional, cell-based; settings: 192 h
[12] = Cytotoxicity against mouse ID8 cells measured after 8 days; type: functional, cell-based; settings: ID8, 192 h
OV-90 = assay: Cytotoxicity against human OV-90 cells measured after 8 days; type: functional, cell-based; settings: OV-90, 192 h
MDA-MB-453 = assay: Cytotoxicity against human MDA-MB-453 cells measured after 8 days; type: functional, cell-based; settings: MDA-MB-453, 192 h
[13] = Cytotoxicity against human SUM52PE cells measured after 8 days; type: functional, cell-based; settings: 192 h
[14] = Cytotoxicity against human OVISE cells measured after 8 days; type: functional, cell-based; settings: 192 h
NCI-H716 = assay: Cytotoxicity against human NCI-H716 cells measured after 8 days; type: functional, cell-based; settings: NCI-H716, 192 h
C-33-A = assay: Cytotoxicity against human C-33-A cells measured after 8 days; type: functional, cell-based; settings: 192 h
SISO = assay: Cytotoxicity against human SISO cells measured after 8 days; type: functional, cell-based; settings: 192 h
SKG-IIIa = assay: Cytotoxicity against human SKG-IIIa cells measured after 8 days; type: functional, cell-based; settings: 192 h
[15] = Cytotoxicity against human KPP14388 cells measured after 8 days; type: functional, cell-based; settings: KPP14388, 192 h
[16] = Cytotoxicity against human KR7110 cells measured after 8 days; type: functional, cell-based; settings: KR7110, 192 h
[17] = Cytotoxicity against human PaTu 8988s cells measured after 8 days; type: functional, cell-based; settings: 192 h
C170 = assay: Cytotoxicity against human C170 cells measured after 8 days; type: functional, cell-based; settings: C170, 192 h
CaR-1 = assay: Cytotoxicity against human CaR-1 cells measured after 8 days; type: functional, cell-based; settings: CaR-1, 192 h
SW1990 = assay: Cytotoxicity against human SW1990 cells measured after 8 days; type: functional, cell-based; settings: SW1990, 192 h
[18] = Cytotoxicity against human TCC-Pan2 cells measured after 8 days; type: functional, cell-based; settings: TCC-Pan2, 192 h
MC-38 = assay: Cytotoxicity against mouse MC-38 cells measured after 8 days; type: functional, cell-based; settings: MC-38, 192 h
[19] = Cytotoxicity against human RKOE6 cells measured after 8 days; type: functional, cell-based; settings: RKOE6, 192 h
SJRH30 = assay: Cytotoxicity against human SJRH30 cells measured after 8 days; type: functional, cell-based; settings: SJRH30, 192 h
[20] = Cytotoxicity against human C32TG cells measured after 8 days; type: functional, cell-based; settings: 192 h
[21] = Cytotoxicity against human COLO 794 cells measured after 8 days; type: functional, cell-based; settings: COLO 794, 192 h
KYSE-520 cell line = assay: Cytotoxicity against human KYSE520 cells measured after 8 days; type: functional, cell-based; settings: KYSE-520, 192 h
[22] = Cytotoxicity against human OE21 cells measured after 8 days; type: functional, cell-based; settings: OE21, 192 h
CAKI-2 = assay: Cytotoxicity against human CAKI-2 cells measured after 8 days; type: functional, cell-based; settings: CAKI-2, 192 h
Renca = assay: Cytotoxicity against mouse Renca cells measured after 8 days; type: functional, cell-based; settings: 192 h
[23] = Cytotoxicity against human UM-RC-6 cells measured after 8 days; type: functional, cell-based; settings: UM-RC-6, 192 h
C3A = assay: Cytotoxicity against human C3A cells measured after 8 days; type: functional, cell-based; settings: 192 h
SK-MEL-30 = assay: Cytotoxicity against human SK-MEL-30 cells measured after 8 days; type: functional, cell-based; settings: SK-MEL-30, 192 h
[24] = Cytotoxicity against human JHH-1 cells measured after 8 days; type: functional, cell-based; settings: JHH1, 192 h
23132-87 = assay: Cytotoxicity against human 23132-87 cells measured after 8 days; type: functional, cell-based; settings: 23132-87, 192 h
Hs746T = assay: Cytotoxicity against human Hs746T cells measured after 8 days; type: functional, cell-based; settings: 192 h
[25] = Cytotoxicity against human SNU-601 cells measured after 8 days; type: functional, cell-based; settings: SNU-601, 192 h
COR-L279 = assay: Cytotoxicity against human COR-L279 cells measured after 8 days; type: functional, cell-based; settings: COR-L279, 192 h
CGTH-W-1 = assay: Cytotoxicity against human CGTH-W-1 cells measured after 8 days; type: functional, cell-based; settings: CGTH-W-1, 192 h
RT-4 = assay: Cytotoxicity against human RT-4 cells measured after 8 days; type: functional, cell-based; settings: RT-4, 192 h
[26] = Cytotoxicity against human UM-UC-1 cells measured after 8 days; type: functional, cell-based; settings: UM-UC-1, 192 h
UMUC3 = assay: Cytotoxicity against human UMUC3 cells measured after 8 days; type: functional, cell-based; settings: UMUC3, 192 h
[27] = Cytotoxicity against human HCC60 cells measured after 8 days; type: functional, cell-based; settings: HCC60, 192 h
[28] = Cytotoxicity against human COLO 685 cells measured after 8 days; type: functional, cell-based; settings: COLO 685, 192 h
HEC-1-A = assay: Cytotoxicity against human HEC-1-A cells measured after 8 days; type: functional, cell-based; settings: 192 h
[29] = Cytotoxicity against human HEC-116 cells measured after 8 days; type: functional, cell-based; settings: HEC-116, 192 h
MES-SA = assay: Cytotoxicity against human MES-SA cells measured after 8 days; type: functional, cell-based; settings: 192 h
[30] = Cytotoxicity against human NJG cells measured after 8 days; type: functional, cell-based; settings: 192 h
[31] = molecular target: GABA-A receptor; alpha-1/beta-2/gamma-2 (Homo sapiens) (UniProt P14867+P47870+P18507); assay: Inhibition of GABA alpha1/beta2/gamma2 (unknown origin) at 1 uM relative to control; type: protein-complex assay
PC-9 = assay: Cytotoxicity against human PC-9 cells assessed as decrease in drug tolerant population supplemented with fresh medium containing compound every 3 days for 9 days in presence of erlotinib by Beckman Coulter counting method; type: functional, cell-based; settings: time 9.0 day

Chain of TGF-beta receptor type-1 (Homo sapiens) (P36897 whole entry): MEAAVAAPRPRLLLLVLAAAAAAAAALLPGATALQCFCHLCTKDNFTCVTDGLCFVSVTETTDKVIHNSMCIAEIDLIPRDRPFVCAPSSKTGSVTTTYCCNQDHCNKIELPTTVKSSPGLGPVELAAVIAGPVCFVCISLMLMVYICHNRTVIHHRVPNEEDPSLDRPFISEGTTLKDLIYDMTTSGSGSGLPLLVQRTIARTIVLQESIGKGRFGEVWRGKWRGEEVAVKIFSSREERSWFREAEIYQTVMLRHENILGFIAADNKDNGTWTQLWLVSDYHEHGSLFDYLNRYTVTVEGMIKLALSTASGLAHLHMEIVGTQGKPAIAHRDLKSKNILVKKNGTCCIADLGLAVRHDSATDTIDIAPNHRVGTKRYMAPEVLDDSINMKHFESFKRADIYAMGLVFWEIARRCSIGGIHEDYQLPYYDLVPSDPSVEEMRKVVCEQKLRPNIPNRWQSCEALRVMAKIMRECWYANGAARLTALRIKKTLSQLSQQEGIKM

C/C=C/Cn1cc(-c2cc(OC)c(C(=O)N3CCOCC3)cc2OC)c2cc(C)[nH]c2c1=O
inhibition [1]: -1.5%

C/C=C/Cn1cc(-c2ccc(C(C)(C)O)cc2OC)c2cc[nH]c2c1=O
IC50 (NOMO-1): 20 µM
IC50 [2]: 20 µM
IC50 [3]: 20 µM
IC50 [4]: 20 µM
IC50 (SET-2): 20 µM
IC50 (TMD8): 20 µM
IC50 [5]: 20 µM
IC50 [6]: 20 µM
IC50 [7]: 20 µM
IC50 (SU-DHL-8): 3.26 µM
IC50 [8]: 11.2 µM
IC50 [9]: 20 µM
IC50 [10]: 20 µM
IC50 (CAL-148): 20 µM
IC50 [11]: 20 µM
IC50 [12]: 20 µM
IC50 (OV-90): 20 µM
IC50 (MDA-MB-453): 20 µM
IC50 [13]: 20 µM
IC50 [14]: 20 µM
IC50 (NCI-H716): 20 µM
IC50 (C-33-A): 20 µM
IC50 (SISO): 20 µM
IC50 (SKG-IIIa): 20 µM
IC50 [15]: 20 µM
IC50 [16]: 20 µM
IC50 [17]: 20 µM
IC50 (C170): 20 µM
IC50 (CaR-1): 20 µM
IC50 (SW1990): 20 µM
IC50 [18]: 20 µM
IC50 (MC-38): 20 µM
IC50 [19]: 20 µM
IC50 (SJRH30): 20 µM
IC50 [20]: 20 µM
IC50 [21]: 20 µM
IC50 (KYSE-520 cell line): 14.4 µM
IC50 [22]: 20 µM
IC50 (CAKI-2): 20 µM
IC50 (Renca): 20 µM
IC50 [23]: 20 µM
IC50 (C3A): 20 µM
IC50 (SK-MEL-30): 20 µM
IC50 [24]: 20 µM
IC50 (23132-87): 20 µM
IC50 (Hs746T): 20 µM
IC50 [25]: 20 µM
IC50 (COR-L279): 20 µM
IC50 (CGTH-W-1): 20 µM
IC50 (RT-4): 20 µM
IC50 [26]: 20 µM
IC50 (UMUC3): 20 µM
IC50 [27]: 20 µM
IC50 [28]: 20 µM
IC50 (HEC-1-A): 20 µM
IC50 [29]: 20 µM
IC50 (MES-SA): 7.08 µM
IC50 [30]: 20 µM
inhibition [1]: 0%
inhibition [31]: 4%
Activity (PC-9): Dose-Dependent Effect

C/C=C/Cn1cc(-c2ccc(C(=O)N3CCOCC3)cc2)c2cc[nH]c2c1=O
IC50 (NOMO-1): 20 µM
IC50 [2]: 12 µM
IC50 [3]: 20 µM
IC50 [4]: 20 µM
IC50 (SET-2): 11.1 µM
IC50 (TMD8): 20 µM
IC50 [5]: 20 µM
IC50 [6]: 20 µM
IC50 [7]: 20 µM
IC50 (SU-DHL-8): 12.8 µM
IC50 [8]: 17.9 µM
IC50 [9]: 20 µM
IC50 [10]: 20 µM
IC50 (CAL-148): 20 µM
IC50 [11]: 20 µM
IC50 [12]: 20 µM
IC50 (OV-90): 20 µM
IC50 (MDA-MB-453): 20 µM
IC50 [13]: 20 µM
IC50 [14]: 20 µM
IC50 (NCI-H716): 20 µM
IC50 (C-33-A): 20 µM
IC50 (SISO): 20 µM
IC50 (SKG-IIIa): 20 µM
IC50 [15]: 20 µM
IC50 [16]: 20 µM
IC50 [17]: 20 µM
IC50 (C170): 20 µM
IC50 (CaR-1): 20 µM
IC50 (SW1990): 20 µM
IC50 [18]: 20 µM
IC50 (MC-38): 20 µM
IC50 [19]: 20 µM
IC50 (SJRH30): 20 µM
IC50 [20]: 20 µM
IC50 [21]: 20 µM
IC50 (KYSE-520 cell line): 20 µM
IC50 [22]: 20 µM
IC50 (CAKI-2): 20 µM
IC50 (Renca): 20 µM
IC50 [23]: 20 µM
IC50 (C3A): 20 µM
IC50 (SK-MEL-30): 20 µM
IC50 [24]: 20 µM
IC50 (23132-87): 20 µM
IC50 (Hs746T): 20 µM
IC50 [25]: 20 µM
IC50 (COR-L279): 20 µM
IC50 (CGTH-W-1): 20 µM
IC50 (RT-4): 20 µM
IC50 [26]: 20 µM
IC50 (UMUC3): 20 µM
IC50 [27]: 20 µM
IC50 [28]: 20 µM
IC50 (HEC-1-A): 20 µM
IC50 [29]: 20 µM
IC50 (MES-SA): 20 µM
IC50 [30]: 20 µM
inhibition [31]: 8%
Activity (PC-9): Dose-Dependent Effect
